Columns and labels:
SARS-CoV2 spike protein = SARS-CoV2 spike protein (Severe acute respiratory syndrome coronavirus 2, UniProt P0DTC2); type: binding
HEK293 cells = settings: PrestoBlue, various concentrations, within the indicated concentrations (FIG. 3E)

O=C1Nc2ccccc2/C1=C\c1ccc(-c2cc(C(F)(F)F)cc(C(F)(F)F)c2)o1 [CD04872SC, 3-({5-[3,5-di(trifluoromethyl)phenyl]-2-furyl}methylidene)indolin-2-one]
difference of thermal stability (Tm) in presence versus absence of compound (SARS-CoV2 spike protein): about 3 Celsius degrees
cell cytotoxicity (HEK293 cells): without major cell cytotoxicity
